Measurements reported in patent publication US20250215039A1, “NUCLEOSIDES FOR TREATING CANCER” (PRIMEFOUR THERAPEUTICS, INC., priority 2022, published 2025).
Like-named read-outs stand apart in the source and are kept apart here.

System: cancer cell lines
Experiment: Cancer cell proliferation activity (CellTiterGlo, 72 h)
Format: cell-based
Settings: 72 h, 72 h, read-out: IC50
Procedure, shortened: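 Readout is CellTiterGlo luminescence after 72 h compound exposure (0.1% DMSO final), started one day post-seeding, at 37 °C.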

IC50 (5637 cell line (bladder)): 4.05 µM
IC50 (AS49 cell line (lung)): > 50 µM
IC50 (CLS439 cell line (bladder)): > 50 µM
IC50 (HS729 cell line (muscle)): 12.3 µM
IC50 (JAR cell line (placenta)): 1.74 µM
IC50 (Homo sapiens, 22Rv1, 72 h, 22RV1 cell line (prostate)): > 50 µM
IC50 (Homo sapiens, 786-0, 72 h, 786O cell line (kidney)): 2.06 µM
IC50 (Homo sapiens, A204, 72 h, A204 cell line (muscle)): 3.33 µM
IC50 (Homo sapiens, A673, 72 h, A673 cell line (bone)): > 50 µM
IC50 (Homo sapiens, A2780, 72 h, A2780 cell line (ovary)): 4.62 µM
IC50 (Homo sapiens, A-375, 72 h, A375 cell line (skin)): 2.32 µM
IC50 (Homo sapiens, A-431, 72 h, A431 cell line (skin)): 2.32 µM
IC50 (Homo sapiens, ACHN, ACHN cell line (kidney)): > 50 µM
IC50 (Homo sapiens, ASPC1, 72 h, ASPC1 cell line (pancreas)): 2.3 µM
IC50 (Homo sapiens, BT-20, 72 h, BT20 cell line (breast)): 2.03 µM
IC50 (Homo sapiens, BXPC-3, 72 h, BXPC3 cell line (pancreas)): > 50 µM
IC50 (Homo sapiens, C-33-A, C33A cell line (cervical)): 4.21 µM
IC50 (Homo sapiens, CAKI-1, 72 h, CAKI1 cell line (kidney)): 0.32 µM
IC50 (Homo sapiens, COLO 205, 72 h, COLO205 cell line (colon)): > 50 µM
IC50 (Homo sapiens, COLO-678, 72 h, COLO678 cell line (colon)): > 50 µM
IC50 (Homo sapiens, Ca-Ski, CASKI cell line (cervical)): 1.69 µM
IC50 (Homo sapiens, Caco-2, 72 h, CACO2 cell line (colon)): 3.6 µM
IC50 (Homo sapiens, Calu-6, 72 h, CALU6 cell line (lung)): 4.12 µM
IC50 (Homo sapiens, DLD-1, 72 h, DLD1 cell line (colon)): > 50 µM
IC50 (Homo sapiens, DU-145, 72 h, DU145 cell line (prostate)): 1.47 µM
IC50 (Homo sapiens, EFO-21, 72 h, EFO21 cell line (ovary)): 3.32 µM
IC50 (Homo sapiens, EJ-28, 72 h, EJ28 cell line (bladder)): 3.49 µM
IC50 (Homo sapiens, Granta-519, 72 h, GRANTA-519 cell line (hematological)): 4.01 µM
IC50 (Homo sapiens, HCT-15, 72 h, HCT15 cell line (colon)): > 50 µM
IC50 (Homo sapiens, HCT-116, 72 h, HCT116 cell line (colon)): 2.89 µM
IC50 (Homo sapiens, HEK293, 72 h, HEK293 cell line (kidney)): 2.46 µM
IC50 (Homo sapiens, HL-60, 72 h, HL-60 cell line (hematological)): 3.85 µM
IC50 (Homo sapiens, HT-29, 72 h, HT29 cell line (colon)): 1.46 µM
IC50 (Homo sapiens, HT-1080, 72 h, HT1080 cell line (connective tissue)): > 50 µM
IC50 (Homo sapiens, HeLa, HELA cell line (cervical)): 4.53 µM
IC50 (Homo sapiens, HepG2, 72 h, HEPG2 cell line (liver)): 2.96 µM
IC50 (Homo sapiens, Hs-578T, HS578T cell line, breast): 6.12 µM
IC50 (Homo sapiens, IGROV-1, 72 h, IGROV1 cell line (ovary)): 2.03 µM
IC50 (Homo sapiens, IMR-90, 72 h, IMR90 cell line, lung): 4.24 µM
IC50 (Homo sapiens, J82, 72 h, J82 cell line (bladder)): 4.64 µM
IC50 (Homo sapiens, JEG-3, 72 h, JEG3 cell line (placenta)): 2.82 µM
IC50 (Homo sapiens, JIMT-1, 72 h, JIMT1 cell line (breast)): 1.23 µM
IC50 (Homo sapiens, K562, 72 h, K-562 cell line (hematological)): > 50 µM
IC50 (Homo sapiens, Kasumi 1, 72 h, KASUMI-1 cell line (hematological)): 2.16 µM
IC50 (Homo sapiens, L-363, 72 h, L-363 cell line (hematological)): 3.36 µM
IC50 (Homo sapiens, LoVo, LOVO cell line (colon)): 1.61 µM
IC50 (Homo sapiens, MCF7, 72 h, MCF7 cell line (breast)): > 50 µM
IC50 (Homo sapiens, MDA-MB-231, 72 h, MDAMB231 cell line (breast)): > 50 µM
IC50 (Homo sapiens, MDA-MB-435, 72 h, MDAMB435 cell line (skin)): > 50 µM
IC50 (Homo sapiens, MDA-MB-436, 72 h, MDAMB436 cell line (breast)): 3.22 µM
IC50 (Homo sapiens, MDA-MB-468, 72 h, MDAMB468 cell line (breast)): 4.45 µM
IC50 (Homo sapiens, MG-63, 72 h, MG63 cell line (bone)): > 50 µM
IC50 (Homo sapiens, MHH-ES-1, 72 h, MHHES1 cell line (bone)): 2.91 µM
IC50 (Homo sapiens, MIA PaCa-2, 72 h, MIAPACA2 cell line (pancreas)): > 50 µM
IC50 (Homo sapiens, MINO, MINO cell line (hematological)): 1.08 µM
IC50 (Homo sapiens, MV4-11, 72 h, MV4-11 cell line (hematological)): 0.63 µM
IC50 (Homo sapiens, NCI-H23, 72 h, NCI-H23 cell line (lung)): 3.29 µM
IC50 (Homo sapiens, NCI-H82, 72 h, NCIH82 cell line (lung)): 3.77 µM
IC50 (Homo sapiens, NCI-H292, 72 h, NCIH292 cell line (lung)): > 50 µM
IC50 (Homo sapiens, NCI-H460, 72 h, NCIH460 cell line (lung)): 3.37 µM
IC50 (Homo sapiens, OVCAR-3, 72 h, OVCAR3 cell line (ovary)): 2.05 µM
IC50 (Homo sapiens, OVCAR-4, 72 h, OVCAR4 cell line (ovary)): 3.52 µM
IC50 (Homo sapiens, PANC-1, 72 h, PANC1 cell line (pancreas)): > 50 µM
IC50 (Homo sapiens, PC-3, 72 h, PC3 cell line (prostate)): 5.77 µM
IC50 (Homo sapiens, PLC-PRF-5, 72 h, PLCPRF5 cell line (liver)): > 50 µM
IC50 (Homo sapiens, Panc1005, 72 h, PANC1005 cell line (pancreas)): 1.41 µM
IC50 (Homo sapiens, RD, RD cell line (muscle)): 6.72 µM
IC50 (Homo sapiens, Ramos, RAMOS cell line (hematological)): 2.44 µM
IC50 (Homo sapiens, SAOS-2, 72 h, SAOS2 cell line (bone)): 3.56 µM
IC50 (Homo sapiens, SF-268, 72 h, SF268 cell line (brain)): > 50 µM
IC50 (Homo sapiens, SF-295, 72 h, SF295 cell line (brain)): > 50 µM
IC50 (Homo sapiens, SK-BR-3, 72 h, SKBR3 cell line (breast)): 1.33 µM
IC50 (Homo sapiens, SK-HEP1, 72 h, SKHEP1 cell line (liver)): > 50 µM
IC50 (Homo sapiens, SK-LMS-1, 72 h, SKLMS1 cell line (uterus)): 2.29 µM
IC50 (Homo sapiens, SK-MEL-5, 72 h, SKMEL5 cell line, skin): > 50 µM
IC50 (Homo sapiens, SK-MEL-28, 72 h, SKMEL28 cell line (skin)): 9.02 µM
IC50 (Homo sapiens, SK-N-AS, SKNAS cell line (brain)): 6.83 µM
IC50 (Homo sapiens, SK-N-SH, SKNSH cell line (brain)): 2.91 µM
IC50 (Homo sapiens, SK-OV-3, 72 h, SKOV3 cell line (ovary)): 3.62 µM
IC50 (Homo sapiens, SNB-75, 72 h, SNB75 cell line (brain)): 14.9 µM
IC50 (Homo sapiens, SU-DHL10, 72 h, SU-DHL-10 cell line (hematological)): 2.62 µM
IC50 (Homo sapiens, SU-DHL-6, 72 h, SU-DHL-6 cell line (hematological)): 2.1 µM
IC50 (Homo sapiens, SW-620, 72 h, SW620 cell line (colon)): 3.12 µM
IC50 (Homo sapiens, T-24, 72 h, T24 cell line (bladder)): 6.26 µM
IC50 (Homo sapiens, TE-671, 72 h, TE671 cell line (muscle)): 12.6 µM
IC50 (Homo sapiens, THP-1, 72 h, THP-1 cell line (hematological)): 5.5 µM
IC50 (Homo sapiens, U2OS, U2OS cell line (bone)): > 50 µM
IC50 (Homo sapiens, U-87 MG, U87MG cell line (brain)): > 50 µM
IC50 (Homo sapiens, UMUC3, 72 h, UMUC3 cell line (bladder)): > 50 µM
IC50 (Homo sapiens, UO-31, 72 h, UO31 cell line (kidney)): 4.54 µM
IC50 (Homo sapiens, WSU-NHL, WSU-NHL cell line (hematological)): 4.87 µM
IC50 (MT-3, 72 h, MT3 cell line (breast)): 3.9 µM
IC50 (NCI-H358M, NCIH358M cell line (lung)): 2.63 µM
IC50 (PBMC, PBMC (hematological)): > 50 µM
IC50 (RD-ES, RDES cell line (bone)): 4.48 µM
Compound: Nc1nc(F)nc2c1ncn2[C@H]1C[C@H](O)[C@](CO)(CF)O1 [compound 150, (2R,3S,5R)-5-(6-amino-2-fluoro-9H-purin-9-yl)-2-(fluoromethyl)-2-(hydroxymethyl)tetrahydrofuran-3-ol]
